Source: patent US20150307520A1, “NOVEL HETEROARYL AND HETEROCYCLE COMPOUNDS, COMPOSITIONS AND METHODS THEREOF” (HUTCHISON MEDIPHARMA LIMITED, priority 2012, published 2015)
pIC50: −log10 of the molar value.

Tests used:
Format in all cases: biochemical
p110β/p85α = p110β/p85α (Homo sapiens, UniProt P42338); test: Transcreener KINASE Assay, kinase inhibition of p110β/p85α; conditions: for PI3Kβ IH % @ 1 uM: 1 uM test compound; for pIC50: read-out: PI3Kβ IC50
Method in brief: (§1)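 Recombinant human PI3K heterodimers (p110/p85α) incubated with compound (2% DMSO final) in HEPES/NaCl/EGTA/CHAPS/MgCl2/DTT buffer with 30 uM PIP2 and 10 uM ATP (as added) for 80 min at room temperature.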

p110δ/p85α = p110δ/p85α (Homo sapiens, UniProt O00329); test: Transcreener KINASE Assay, kinase inhibition of p110δ/p85α; conditions: for PI3Kδ IH % @ 1 uM: 1 uM test compound; for pIC50: read-out: PI3Kδ IC50
Method in brief: as §1

p110γ = p110γ (Homo sapiens, UniProt P48736); test: Transcreener KINASE Assay, kinase inhibition of p110γ; conditions: for PI3Kγ IH % @ 1 uM: 1 uM test compound; for pIC50: read-out: PI3Kγ IC50
Method in brief: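 Recombinant PI3K isoform complexes were tested in a two-step endpoint ADP-detection assay. Kinase reaction ran 80 min at room temperature, followed by 60 min with ADP detection mix. Far-red competitive fluorescence polarization immunoassay read-out; IC50s fitted from the FP data.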

p110γ, sequence (P48736 whole entry, canonical isoform): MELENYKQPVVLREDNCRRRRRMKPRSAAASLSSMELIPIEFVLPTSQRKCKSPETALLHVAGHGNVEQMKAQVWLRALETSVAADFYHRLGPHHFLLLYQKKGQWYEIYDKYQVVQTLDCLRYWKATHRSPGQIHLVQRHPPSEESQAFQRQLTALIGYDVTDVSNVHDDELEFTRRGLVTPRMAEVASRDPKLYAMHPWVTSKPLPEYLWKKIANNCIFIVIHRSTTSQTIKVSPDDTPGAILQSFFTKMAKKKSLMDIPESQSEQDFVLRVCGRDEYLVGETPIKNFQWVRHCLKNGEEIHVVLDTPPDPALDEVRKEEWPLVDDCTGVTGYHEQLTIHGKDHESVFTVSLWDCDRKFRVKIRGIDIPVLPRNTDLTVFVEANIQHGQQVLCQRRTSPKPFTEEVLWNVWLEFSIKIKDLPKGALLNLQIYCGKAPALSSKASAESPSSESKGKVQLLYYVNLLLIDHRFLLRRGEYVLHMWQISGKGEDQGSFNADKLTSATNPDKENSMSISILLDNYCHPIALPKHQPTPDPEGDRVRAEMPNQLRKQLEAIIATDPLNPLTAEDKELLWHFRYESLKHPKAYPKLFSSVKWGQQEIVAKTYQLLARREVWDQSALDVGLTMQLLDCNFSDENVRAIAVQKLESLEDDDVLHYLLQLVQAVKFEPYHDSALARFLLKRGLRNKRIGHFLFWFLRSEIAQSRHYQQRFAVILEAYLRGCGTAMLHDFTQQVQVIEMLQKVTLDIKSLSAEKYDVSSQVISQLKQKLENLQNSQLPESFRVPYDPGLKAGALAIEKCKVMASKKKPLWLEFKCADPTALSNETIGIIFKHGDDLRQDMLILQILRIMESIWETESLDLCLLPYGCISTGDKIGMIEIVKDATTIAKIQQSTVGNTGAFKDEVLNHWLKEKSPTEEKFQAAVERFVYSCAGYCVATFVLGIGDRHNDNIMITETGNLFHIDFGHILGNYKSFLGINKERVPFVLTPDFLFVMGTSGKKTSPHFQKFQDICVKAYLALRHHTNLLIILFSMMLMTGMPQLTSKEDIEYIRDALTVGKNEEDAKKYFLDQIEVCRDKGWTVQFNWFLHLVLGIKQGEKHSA
p110δ/p85α, sequence (O00329 whole entry): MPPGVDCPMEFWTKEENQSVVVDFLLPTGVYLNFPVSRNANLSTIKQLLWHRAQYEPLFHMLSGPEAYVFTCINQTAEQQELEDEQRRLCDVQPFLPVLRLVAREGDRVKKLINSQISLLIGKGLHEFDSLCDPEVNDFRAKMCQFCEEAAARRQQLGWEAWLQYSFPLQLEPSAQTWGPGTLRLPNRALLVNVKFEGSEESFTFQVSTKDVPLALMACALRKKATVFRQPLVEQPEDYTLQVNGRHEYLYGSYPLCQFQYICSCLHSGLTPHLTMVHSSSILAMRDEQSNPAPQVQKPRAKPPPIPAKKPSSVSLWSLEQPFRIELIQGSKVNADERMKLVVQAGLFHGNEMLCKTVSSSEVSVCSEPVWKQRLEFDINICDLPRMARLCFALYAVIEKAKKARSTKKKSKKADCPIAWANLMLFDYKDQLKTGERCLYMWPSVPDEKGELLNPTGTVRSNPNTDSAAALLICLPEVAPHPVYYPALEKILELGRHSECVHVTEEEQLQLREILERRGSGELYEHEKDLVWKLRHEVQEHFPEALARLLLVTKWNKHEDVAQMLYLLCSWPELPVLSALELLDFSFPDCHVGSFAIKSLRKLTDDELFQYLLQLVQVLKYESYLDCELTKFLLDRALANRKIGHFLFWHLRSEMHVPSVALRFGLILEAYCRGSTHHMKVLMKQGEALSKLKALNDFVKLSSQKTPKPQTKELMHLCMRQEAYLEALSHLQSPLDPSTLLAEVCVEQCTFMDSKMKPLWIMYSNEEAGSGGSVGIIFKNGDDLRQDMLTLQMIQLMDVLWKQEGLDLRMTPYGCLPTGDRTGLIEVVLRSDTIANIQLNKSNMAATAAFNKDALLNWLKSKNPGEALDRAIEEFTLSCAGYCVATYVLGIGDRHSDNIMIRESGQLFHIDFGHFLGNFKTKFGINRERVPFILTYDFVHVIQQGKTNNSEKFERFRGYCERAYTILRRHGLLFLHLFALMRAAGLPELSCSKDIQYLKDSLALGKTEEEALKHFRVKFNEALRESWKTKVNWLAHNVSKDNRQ
p110δ/p85α, sequence (P27986 whole entry partner): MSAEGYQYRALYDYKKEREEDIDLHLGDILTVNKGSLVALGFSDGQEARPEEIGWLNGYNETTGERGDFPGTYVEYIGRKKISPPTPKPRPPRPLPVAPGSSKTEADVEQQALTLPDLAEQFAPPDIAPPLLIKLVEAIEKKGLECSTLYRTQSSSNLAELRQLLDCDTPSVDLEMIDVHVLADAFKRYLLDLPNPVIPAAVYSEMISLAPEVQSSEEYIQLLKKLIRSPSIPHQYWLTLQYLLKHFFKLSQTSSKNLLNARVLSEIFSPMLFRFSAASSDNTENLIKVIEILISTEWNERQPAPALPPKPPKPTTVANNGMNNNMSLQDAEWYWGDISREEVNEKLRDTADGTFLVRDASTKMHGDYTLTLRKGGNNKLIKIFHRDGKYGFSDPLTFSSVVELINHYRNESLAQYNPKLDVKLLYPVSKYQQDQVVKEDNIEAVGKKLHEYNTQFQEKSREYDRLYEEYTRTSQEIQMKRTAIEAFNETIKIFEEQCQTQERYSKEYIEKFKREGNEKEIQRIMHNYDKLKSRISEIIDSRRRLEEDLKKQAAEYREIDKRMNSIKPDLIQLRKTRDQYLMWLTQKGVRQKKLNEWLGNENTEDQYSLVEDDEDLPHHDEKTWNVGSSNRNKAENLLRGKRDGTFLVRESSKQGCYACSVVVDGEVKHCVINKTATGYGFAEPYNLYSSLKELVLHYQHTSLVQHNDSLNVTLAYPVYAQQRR
p110β/p85α, sequence (P42338 whole entry): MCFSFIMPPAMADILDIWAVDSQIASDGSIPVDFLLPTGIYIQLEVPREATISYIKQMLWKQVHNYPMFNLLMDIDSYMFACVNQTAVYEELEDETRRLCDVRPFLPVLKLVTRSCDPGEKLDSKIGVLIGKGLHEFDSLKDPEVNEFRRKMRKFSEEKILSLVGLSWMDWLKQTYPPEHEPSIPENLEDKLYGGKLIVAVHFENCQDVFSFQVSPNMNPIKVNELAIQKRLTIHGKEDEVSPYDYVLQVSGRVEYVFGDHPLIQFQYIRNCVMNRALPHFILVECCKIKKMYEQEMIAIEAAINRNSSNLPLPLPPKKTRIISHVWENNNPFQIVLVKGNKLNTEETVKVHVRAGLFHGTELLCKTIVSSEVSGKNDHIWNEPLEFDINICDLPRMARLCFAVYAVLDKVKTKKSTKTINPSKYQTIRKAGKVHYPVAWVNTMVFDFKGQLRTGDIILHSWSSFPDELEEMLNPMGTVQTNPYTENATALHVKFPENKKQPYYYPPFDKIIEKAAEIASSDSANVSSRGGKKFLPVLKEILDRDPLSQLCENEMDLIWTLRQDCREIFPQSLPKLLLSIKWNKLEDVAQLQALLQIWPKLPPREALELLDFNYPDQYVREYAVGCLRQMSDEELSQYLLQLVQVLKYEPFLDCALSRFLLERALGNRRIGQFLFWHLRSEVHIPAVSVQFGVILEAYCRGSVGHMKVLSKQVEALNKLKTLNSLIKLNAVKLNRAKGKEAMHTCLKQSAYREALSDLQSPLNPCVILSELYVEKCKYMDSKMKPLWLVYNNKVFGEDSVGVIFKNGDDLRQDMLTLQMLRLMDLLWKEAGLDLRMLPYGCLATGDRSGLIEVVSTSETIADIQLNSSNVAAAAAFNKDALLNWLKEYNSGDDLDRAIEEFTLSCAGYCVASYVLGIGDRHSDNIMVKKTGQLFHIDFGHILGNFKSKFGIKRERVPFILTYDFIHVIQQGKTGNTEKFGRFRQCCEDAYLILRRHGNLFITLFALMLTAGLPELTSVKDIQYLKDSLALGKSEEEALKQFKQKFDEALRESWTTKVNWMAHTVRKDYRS
p110β/p85α, sequence (P27986 2-724 partner): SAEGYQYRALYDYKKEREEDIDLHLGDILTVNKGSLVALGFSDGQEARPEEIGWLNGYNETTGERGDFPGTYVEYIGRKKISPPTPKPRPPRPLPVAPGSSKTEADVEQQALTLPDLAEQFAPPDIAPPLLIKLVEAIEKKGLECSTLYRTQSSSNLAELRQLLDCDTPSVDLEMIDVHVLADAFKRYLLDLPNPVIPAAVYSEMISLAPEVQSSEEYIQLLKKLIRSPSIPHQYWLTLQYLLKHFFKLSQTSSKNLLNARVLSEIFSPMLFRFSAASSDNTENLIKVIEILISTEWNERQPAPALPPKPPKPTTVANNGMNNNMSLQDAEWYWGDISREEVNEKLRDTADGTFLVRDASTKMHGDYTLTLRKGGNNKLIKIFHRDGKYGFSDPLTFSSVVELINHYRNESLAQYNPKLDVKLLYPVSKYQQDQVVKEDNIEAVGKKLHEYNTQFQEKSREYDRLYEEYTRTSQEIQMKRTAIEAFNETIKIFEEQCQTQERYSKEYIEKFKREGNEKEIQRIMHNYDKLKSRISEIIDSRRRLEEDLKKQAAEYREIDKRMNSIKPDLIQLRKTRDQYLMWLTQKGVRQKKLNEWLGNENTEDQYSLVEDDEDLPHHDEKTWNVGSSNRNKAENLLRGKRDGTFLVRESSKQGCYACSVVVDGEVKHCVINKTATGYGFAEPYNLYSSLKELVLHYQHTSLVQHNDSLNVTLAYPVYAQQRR

SMILES	PI3Kβ IH % @ 1 uM (p110β/p85α) [%]	pIC50 (p110β/p85α)	PI3Kδ IH % @ 1 uM (p110δ/p85α) [%]	pIC50 (p110δ/p85α)	PI3Kγ IH % @ 1 uM (p110γ) [%]	pIC50 (p110γ)
C[S+]([O-])c1c[nH]c2ncnc(N3C[C@@H](F)C[C@H]3c3nn4ccc(Cl)c4c(=O)n3-c3ccccc3)c12 (some centres unmarked) [Compound 267]	73.2	6.69	98.9	8.52	>100	7.89
CC(Nc1ncnc2[nH]cc(S(C)(=O)=O)c12)c1cn2ccc(Cl)c2c(=O)n1-c1ccccc1 (centres unmarked) [Compound 269]	38.1		94.7	6.83	>100	7.03
CC(Nc1ncnc2[nH]cc(F)c12)c1cn2ccc(Cl)c2c(=O)n1-c1ccccc1 (centres unmarked) [Compound 270]	87.4	6.76	>100	7.92	89.7	7.66
CC(Nc1nc(N)ncc1C#N)c1cn2ccc(Cl)c2c(=O)n1-c1ccccc1 (centres unmarked) [Compound 271]	94.2	7.82	>100	9.00	97.6	8.70
CC(=O)c1c[nH]c2ncnc(NC(C)c3cn4ccc(Cl)c4c(=O)n3-c3ccccc3)c12 (centres unmarked) [Compound 272]	76.9	6.62	98.8	8.15	>100	7.68
CC(=O)c1cnc(N)nc1NC(C)c1cn2ccc(Cl)c2c(=O)n1-c1ccccc1 (centres unmarked) [Compound 273]	98.8	7.92	>100	8.52	98.3	8.30
CC(=O)c1c(N)ncnc1NC(C)c1cn2ccc(Cl)c2c(=O)n1-c1ccccc1 (centres unmarked) [Compound 274]	61.6		97.8	8.52	86.8	7.00
CC(Nc1nc(N)nc2c1C(=O)CCN2)c1cn2ccc(Cl)c2c(=O)n1-c1ccccc1 (centres unmarked) [Compound 275]	97.5	7.92	>100	9.40	97.8	9.00
CC(=O)c1c[nH]c2ncnc(NC(C)c3cn4ccc(Cl)c4c(=O)n3-c3cccc(F)c3)c12 (centres unmarked) [Compound 276]	52.9		99.1	9.00	95.7	8.22
CC(Nc1ncnc2[nH]cc(C#N)c12)c1cn2ccc(Cl)c2c(=O)n1-c1cccc(F)c1 (centres unmarked) [Compound 277]	81.4	6.61	99.5	9.00	97.0	7.96
COCC#Cc1c[nH]c2ncnc(N3CC[C@H]3c3nn4ccc(Cl)c4c(=O)n3-c3ccccc3)c12 [Compound 279]	43.0		>100	8.30	92.0	7.38
Cn1cc(-c2cnc(N)nc2N2CC[C@H]2c2nn3ccc(Cl)c3c(=O)n2-c2ccccc2)cn1 [Compound 280]	−2.0		47.0		87.2	6.59
CN(C)C(=O)c1cnc(N)nc1N1CC[C@H]1c1nn2ccc(Cl)c2c(=O)n1-c1ccccc1 [Compound 281]	11.1		15.7		62.2	
Nc1ncc([N+](=O)[O-])c(N2CC[C@H]2c2nn3ccc(Cl)c3c(=O)n2-c2ccccc2)n1 [Compound 282]	19.9		94.9		93.5	
Cc1nc(N)nc(N2CC[C@H]2c2nn3ccc(Cl)c3c(=O)n2-c2ccccc2)c1C#N [Compound 283]	78.0	6.86	>100	8.70	>100	9.00
COc1cnc(N)nc1N1CC[C@H]1c1nn2ccc(Cl)c2c(=O)n1-c1ccccc1 [Compound 284]	9.7		51.2		51.2	
CC(Nc1ncnc2[nH]cc(F)c12)c1cc2ncc(Cl)n2c(=O)n1-c1ccccc1 (centres unmarked) [Compound 285]	79.0	6.59	>100	8.40	>100	7.43
CC(Nc1ncnc2[nH]cc(S(C)(=O)=O)c12)c1cc2ncc(Cl)n2c(=O)n1-c1ccccc1 (centres unmarked) [Compound 286]	25.2		88.8	7.54	56.2	
CC(=O)c1c[nH]c2ncnc(NC(C)c3cc4ncc(Cl)n4c(=O)n3-c3ccccc3)c12 (centres unmarked) [Compound 287]	73.9	6.33	>100	8.30	96.9	7.17
CC(=O)c1cnc(N)nc1NC(C)c1cc2ncc(Cl)n2c(=O)n1-c1ccccc1 (centres unmarked) [Compound 288]	94.5	7.03	99.7	8.40	95.8	7.68
CC(Nc1nc(N)nc2c1C(=O)CCN2)c1cc2ncc(Cl)n2c(=O)n1-c1ccccc1 (centres unmarked) [Compound 290]		7.41		9.00		8.40
C=Cc1ccn2nc([C@@H]3CCN3c3ncnc4[nH]cc(C#N)c34)n(-c3ccccc3)c(=O)c12 [Compound 291]	12.6		80.4		91.1	6.84
C=Cc1ccn2nc([C@@H]3CCCN3c3ncnc4[nH]cc(C#N)c34)n(-c3ccccc3)c(=O)c12 [Compound 292]	45.1		>100	8.15	94.7	6.95
O=c1c2c(Cl)ccn2nc([C@@H]2C[S+]([O-])CN2c2ncnc3[nH]cnc23)n1-c1ccccc1 (stereo partly drawn) [Compound 293, 5-chloro-2-((4R)-1-oxido-3-(9H-purin-6-yl)thiazolidin-4-yl)-3-phenylpyrrolo[2,1-f][1,2,4]triazin-4(3H)-one]	54.2		98.9	7.85	94.7	6.99
O=c1c2c(Cl)ccn2nc([C@@H]2CSCN2c2ncnc3[nH]cnc23)n1-c1ccccc1 [Compound 294, (R)-2-(3-(9H-purin-6-yl)thiazolidin-4-yl)-5-chloro-3-phenylpyrrolo[2,1-f][1,2,4]triazin-4(3H)-one]	70.6	6.32	99.3	8.52	>100	7.59
CC(=O)c1c[nH]c2ncnc(N3CC[C@H]3c3nn4ccc(Cl)c4c(=O)n3-c3ccc(F)cc3)c12 [Compound 296, (S)-2-(1-(5-acetyl-7H-pyrrolo[2,3-d]pyrimidin-4-yl)azetidin-2-yl)-5-chloro-3-(4-fluorophenyl)pyrrolo[2,1-f][1,2,4]triazin-4(3H)-one]	6.8		77.0	6.42	85.5	7.44
